US20080280835A1, “Novel Use of Peptide Compounds For Treating Muscle Pain” (priority 2005, published 2008)

Key:
Wistar rats [1] = assay: Mechanical hyperalgesia (Randall-Selitto paw pressure) in iodoacetate rat model of osteoarthritic pain; type: in vivo; conditions: for paw pressure withdrawal threshold compared to iodoacetate/vehicle treated animals: day 3 after iodoacetate
Sprague Dawley rats [2] = assay: TNF-induced muscle pressure hyperalgesia, gastrocnemius muscle (Randall-Selitto analgesimeter); type: in vivo, rat; conditions: for reversal of muscular mechanical hyperalgesia (withdrawal thresholds to pressure): 18 hours after TNF 1 μg into gastrocnemius, 30 to 60 minutes after drug; for Maximal Possible Effect (MPE) versus vehicle, muscle pressure: FIG. 2; for full reversal of the muscle hyperalgesia: doses tested i.p.: pregabalin 30 and 100 mg/kg, gabapentin 100 mg/kg
Experimental: (§1) Intramuscular injection of tumor necrosis factor-alpha (TNF) was used as a model of muscular mechanical hyperalgesia, which occurs in the human fibromyalgia, myofascial pain syndrome, back pain or osteoarthritis.
(§2) Mechanical withdrawal thresholds to muscle pressure were measured with an analgesimeter exerting pressure on the gastrocnemius muscle previously injected with TNF. Forelimb grip strength was measured with a digital grip force meter after TNF injection into the biceps brachii muscles.
(§3) Adult male Sprague Dawley rats with a body weight of 250 g to 300 g were used (supplier: Charles River Sulzfeld Germany). Animals were group-housed (3 animals per cage) and maintained in a room with controlled temperature (21-22° C.) and a reversed light-dark cycle (12 h/12 h) with food and water available ad libitum. All experiments were approved by the Bavarian State animal experimentation committee and carried out in accordance with its regulations.
(§4) Recombinant rat tumor necrosis factor alpha (herein referred to as TNF) was obtained from R&D Systems, Minneapolis, Minn., USA. TNF was diluted in 0.9% NaCl and used in a concentration of 1 μg in 50 μl. Injections were performed in short halothane narcosis with a 30 g needle bilaterally into the gastrocnemius or into the biceps brachii muscle. All rats were used to the behavioral tests before injections and baseline values were recorded over three test days.
Mechanical withdrawal thresholds to muscle pressure were measured with an analgesimeter (Ugo Basile, Comerio, Italy). The rat is allowed to crawl into a sock which helps the rat to relax. The hind limbs were positioned such that an increasing pressure could be applied onto the gastrocnemius muscle (maximum 250 g). The pressure needed to elicit withdrawal was recorded. Means of 3 trials for each hind limb were calculated (interstimulus interval of >30 sec). Only animals with a significant TNF effect were included for further analysis.
Rats were injected with TNF into the M. gastrocnemius at […]. 18 hours later, rats were tested for pressure hyperalgesia pre- and post-application of the drugs. Rats were tested for pressure hyperalgesia 30 to 60 minutes after drug administration.
(§5) […] Injection volume of i.p. injections was 0.5 ml.
(§6) Data are shown in graphs displaying means and SEMs. Pre- and post-treatment data were compared using ANOVA (Analysis Of Variance) and a Tukey post hoc test. Means of treatment groups were compared using a one-way ANOVA and Dunnett's post hoc Test. Maximal possible effects (MPE) were calculated for all types of treatment.

Sprague Dawley rats [3] = assay: TNF-induced reduction of forelimb grip strength, biceps brachii muscle; type: in vivo, rat; conditions: for reversal of the TNF induced reduction of grip strength: 6 hours after TNF 1 μg into biceps brachii, 30 to 60 minutes after drug; for MPE versus vehicle, grip strength: FIG. 4; for dose at which the effect of TNF on grip strength is reversed / grip strength improved: i.p., grip strength test
Experimental: as §1, §2, §3, §4
Grip strength of the forelimbs was tested with a digital grip force meter (DFIS series, Chatillon, Greensboro, N.C., USA). The rat was positioned to grab the grid with the forelimbs and was gently pulled so that the grip strength could be recorded. Means of three trials were calculated. The effect of the TNF treatment was calculated for each animal separately and only animals with a significant TNF effect were included for further analysis.
Rats were injected with TNF into the M. biceps brachii at 8 am. 6 hours later, grip strength of the forelimbs was tested with a digital grip force meter. Drugs were applied, and grip strength was again tested after 30 to 60 minutes.
as §5, §6

Wistar rats [4] = assay: Tactile allodynia (von Frey filaments) in iodoacetate rat model of osteoarthritic pain; type: in vivo
[5] = 30 mg/kg p.o., day 7 after iodoacetate
[6] = 3 mg/kg s.c., day 7 after iodoacetate

SMILES: O=C(O)Cc1ccccc1Nc1c(Cl)cccc1Cl [diclofenac]
- paw pressure withdrawal threshold compared to iodoacetate/vehicle treated animals (Wistar rats [1]; 30 mg/kg s.c.): increase in paw pressure withdrawal threshold
- mechanical hyperalgesia (Wistar rats [1]; 30 mg/kg s.c., day 7 after iodoacetate): reduced mechanical hyperalgesia

SMILES: NCC1(CC(=O)O)CCCCC1 [gabapentin]
- reversal of muscular mechanical hyperalgesia (withdrawal thresholds to pressure) (Sprague Dawley rats [2]; 100 mg/kg i.p.): significant reversal
- Maximal Possible Effect (MPE) versus vehicle, muscle pressure (Sprague Dawley rats [2]; 100 mg/kg i.p.): significantly different from vehicle
- full reversal of the muscle hyperalgesia (Sprague Dawley rats [2]): Neither pregabalin nor gabapentin lead to a full reversal
- reversal of the TNF induced reduction of grip strength (Sprague Dawley rats [3]; 100 mg/kg i.p.): significant reversal
- MPE versus vehicle, grip strength (Sprague Dawley rats [3]; 100 mg/kg i.p.): significantly different from vehicle
- dose at which the effect of TNF on grip strength is reversed / grip strength improved (Sprague Dawley rats [3]): 100 mg/kg

SMILES: COC[C@@H](NC(C)=O)C(=O)NCc1ccccc1 [lacosamide, (R)-2-acetamido-N-benzyl-3-methoxy-propionamide]
- Maximal Possible Effect (MPE) versus vehicle, muscle pressure (Sprague Dawley rats [2]; 10 mg/kg i.p.): significantly different from vehicle
- reversal of muscular mechanical hyperalgesia (withdrawal thresholds to pressure) (Sprague Dawley rats [2]; 30 mg/kg i.p.): complete reversal
- Maximal Possible Effect (MPE) versus vehicle, muscle pressure (Sprague Dawley rats [2]; 30 mg/kg i.p.): significantly different from vehicle
- muscle hyperalgesia induced by TNF injection in the paw pressure test, dose dependence (Sprague Dawley rats [2]; 3, 10, 30 mg/kg i.p.): dose dependently improves
- reversal of the TNF induced reduction of grip strength (Sprague Dawley rats [3]; 10 mg/kg i.p.): significant reversal
- MPE versus vehicle, grip strength (Sprague Dawley rats [3]; 10 mg/kg i.p.): significantly different from vehicle
- reversal of the TNF induced reduction of grip strength (Sprague Dawley rats [3]; 30 mg/kg i.p.): significant reversal
- MPE versus vehicle, grip strength (Sprague Dawley rats [3]; 30 mg/kg i.p.): significantly different from vehicle
- dose at which the effect of TNF on grip strength is reversed / grip strength improved (Sprague Dawley rats [3]): 10 mg/kg
- improvement of tactile allodynia (Wistar rats [4]; 30 mg/kg p.o., day 3 after iodoacetate, 60 minutes after drug): improved
- improvement of tactile allodynia (Wistar rats [4]; [5]): improved
- improvement of tactile allodynia (Wistar rats [4]; lower doses (3 and 10 mg/kg p.o.)): showed a trend for such improvement
- paw pressure withdrawal threshold compared to iodoacetate/vehicle treated animals (Wistar rats [1]; 3 mg/kg p.o.): increase in paw pressure withdrawal threshold
- mechanical hyperalgesia (Wistar rats [1]; 3 mg/kg p.o., day 7 after iodoacetate): reduced mechanical hyperalgesia
- mechanical hyperalgesia (Wistar rats [1]; 10 mg/kg p.o., day 7 after iodoacetate): reduced mechanical hyperalgesia
- mechanical hyperalgesia (Wistar rats [1]; 10 mg/kg p.o., day 14 after iodoacetate): did not show a statistically significant effect
- mechanical hyperalgesia (Wistar rats [1]; [5]): reduced mechanical hyperalgesia

SMILES: Cc1c(N(C)CS(=O)(=O)O)c(=O)n(-c2ccccc2)n1C [metamizol]
- reversal of muscular mechanical hyperalgesia (withdrawal thresholds to pressure) (Sprague Dawley rats [2]; 2 mg/kg i.p.): complete reversal
- Maximal Possible Effect (MPE) versus vehicle, muscle pressure (Sprague Dawley rats [2]; 2 mg/kg i.p.): significantly different from vehicle
- reversal of the TNF induced reduction of grip strength (Sprague Dawley rats [3]; 2 mg/kg i.p.): significant reversal
- MPE versus vehicle, grip strength (Sprague Dawley rats [3]; 2 mg/kg i.p.): significantly different from vehicle

SMILES: CN1CC[C@]23c4c5ccc(O)c4O[C@H]2[C@@H](O)C=C[C@H]3[C@H]1C5 [morphine]
- improvement of tactile allodynia (Wistar rats [4]; 3 mg/kg s.c., day 3 after iodoacetate): improved
- improvement of tactile allodynia (Wistar rats [4]; [6]): improved
- paw pressure withdrawal threshold compared to iodoacetate/vehicle treated animals (Wistar rats [1]; 3 mg/kg s.c.): increase in paw pressure withdrawal threshold
- mechanical hyperalgesia (Wistar rats [1]; [6]): reduced mechanical hyperalgesia

SMILES: CC(C)C[C@H](CN)CC(=O)O [pregabalin]
- reversal of muscular mechanical hyperalgesia (withdrawal thresholds to pressure) (Sprague Dawley rats [2]; 30 mg/kg i.p.): significant reversal
- Maximal Possible Effect (MPE) versus vehicle, muscle pressure (Sprague Dawley rats [2]; 30 mg/kg i.p.): significantly different from vehicle
- reversal of muscular mechanical hyperalgesia (withdrawal thresholds to pressure) (Sprague Dawley rats [2]; 100 mg/kg i.p.): significant reversal
- Maximal Possible Effect (MPE) versus vehicle, muscle pressure (Sprague Dawley rats [2]; 100 mg/kg i.p.): significantly different from vehicle
- full reversal of the muscle hyperalgesia (Sprague Dawley rats [2]): Neither pregabalin nor gabapentin lead to a full reversal
- reversal of the TNF induced reduction of grip strength (Sprague Dawley rats [3]; 100 mg/kg i.p.): significant reversal
- MPE versus vehicle, grip strength (Sprague Dawley rats [3]; 100 mg/kg i.p.): significantly different from vehicle
- dose at which the effect of TNF on grip strength is reversed / grip strength improved (Sprague Dawley rats [3]): 100 mg/kg
